The values below come from PMC5312080 (mBio, 2017).

For data set [1], the system named is M. tuberculosis H37Rv. The data set can be described thus: Microdilution alamarBlue assay (MABA) MIC. Format: cell-based. Conditions: Mycobacterium tuberculosis.
The nature of another data set: in vitro. Conditions: African green monkey.
Data set [2] concerns M. tuberculosis H37Rv. The data set can be described thus: Checkerboard alamarBlue compound interaction assay. Type of data set: cell-based, Mycobacterium tuberculosis. Conditions: for FIC: FIC of the anti-TB drug in combination with DG70; for MIC: Mycobacterium tuberculosis, H37RV, drug alone, checkerboard; for MIC In combination: anti-TB drug in combination with DG70; for FIC category / FIC index (∑FIC): combination of the named drug with DG70.

Data set [3] has as its system mycobacterial oxygen consumption. In words: Oxygen consumption, methylene blue decolorization. Format: cell-based.
The subject of another data set is ATP synthesis in BCG. Type of data set: cell-based, Mycobacterium bovis BCG.
For a further data set, the system named is BCG. Format: cell-based, Mycobacterium bovis BCG.
Data set [4] has as its system menaquinone biosynthesis (MenG). Format: cell-based, Mycobacterium bovis BCG.
Data set [5] shares this test system. Type of data set: cell-based, Mycobacterium bovis BCG. This is another data set of the same source.
A further data set relates to M. bovis BCG. In words: microbe, parasite or virus in culture. Format: cell-based. Conditions: Mycobacterium tuberculosis variant bovis BCG.
Data set [6] relates to nonreplicating M. tuberculosis. Type of data set: cell-based, Mycobacterium tuberculosis.
Where [7] appears, read: Table S2, parent H37Rv, read-out: MIC in Mtb H37Rv.
Setting [8] is: whole-cell activity versus M. tuberculosis, […], read-out: MIC.

Converted amounts (≈) assume the structure as drawn. “And” between values parts separate entries of the source, which are not always exact repeats. Equal values may be shown once. Read-outs that look alike come from different tables or passages of the source.

Take `COc1ccc(-c2cc(N(C)C(=O)c3ccc(F)cc3Cl)ccc2OC)cc1` [JSF-2949]: the figures for the minimum inhibitory concentration (MIC) in the data set on M. tuberculosis H37Rv [1] (setting [7]) and in the data set with M. tuberculosis H37Rv [1] (setting [8]) were 39.5 µg/mL (≈ 98.8 µM) and 39 µg/mL (≈ 97.5 µM), respectively. The CC50 in “in vitro” stood at 24 µg/mL (≈ 60 µM).

`CSc1ccc2c(c1)N(CCC1CCCCN1C)c1ccccc1S2` (stereo not drawn) [THZ, thioridazine]: in the data set on M. tuberculosis H37Rv [2], the FIC was 0.5; the MIC was 6.25 µM; the “MIC In combination” value is 3.12 µM; the FIC category result is on record as “additive (>0.5 to ≤1, additive)”. Moreover, in the data set with M. tuberculosis H37Rv [2], the “FIC index (∑FIC)” value was 0.7. Besides, the “effect of MK4 supplementation on inhibition of oxygen consumption” value in data set [3] is given as “failed to reverse”. Further, the “effect of MK4 supplementation on inhibition of ATP synthesis” value in the data set with ATP synthesis in BCG was “failed to reverse”.

On to `COc1ccc(-c2cc(NC(=O)c3ccc(F)cc3)ccc2OC)cc1` [JSF-2909], for which the MIC in the data set on M. tuberculosis H37Rv [1] (setting [7]) and with M. tuberculosis H37Rv [1] (setting [8]) was over 77 µg/mL throughout. The compound also gave a CC50 in “in vitro” of over 50 µg/mL.

For `COc1ccc(-c2cc(NCc3ccc(F)cc3Cl)ccc2OC)cc1` [JSF-2951], the MIC in the data set with M. tuberculosis H37Rv [1] (setting [7]) and in the data set with M. tuberculosis H37Rv [1] (setting [8]) was 77 µg/mL (≈ 207 µM) each time. In “in vitro”, this compound displayed a CC50 of over 50 µg/mL.

In the case of `COc1nc2ccc(Br)cc2cc1[C@@H](c1ccccc1)[C@@](O)(CCN(C)C)c1cccc2ccccc12` [BDQ, bedaquiline], in the data set on M. tuberculosis H37Rv [2], the FIC stood at 0.4; the MIC stood at 0.39 µM; the “MIC In combination” value turned out to be 0.16 µM; the FIC category entry was “synergistic (≤0.5, synergistic)”. The “FIC index (∑FIC)” value in the data set with M. tuberculosis H37Rv [2] was 0.5. The “effect of MK4 supplementation on inhibition of oxygen consumption” value in [3] (400 µM MK4) was “failed to reverse”. For the same compound, in the data set on BCG, the “killing (drop in CFU) over 21 days” value came out at 5 log10, the “killing in 4 days” value is recorded as “less than 1 log10” and the “time of treatment to sterile cultures (no CFU detected)” value (from here on “time of treatment … (no CFU detected)”) turned out to be 21 days. Moreover, in data set [4], the “[14C]methyl incorporation into menaquinone” value is “no such effect”. In the data set on ATP synthesis in BCG, the “effect of MK4 supplementation on inhibition of ATP synthesis” value is “failed to reverse”.

As to `O=C(Nc1cccc(-c2ccccc2)c1)c1ccc(F)cc1Cl` [JSF-2910], the MIC with M. tuberculosis H37Rv [1] (setting [7]) and in the data set with M. tuberculosis H37Rv [1] (setting [8]) was 9.6 µg/mL (≈ 29.5 µM) throughout. This compound also showed a CC50 in the data set “in vitro” of over 50 µg/mL.

As for `COc1ccc(-c2cc(NC(=O)c3ccccc3)ccc2OC)cc1` [JSF-2912], the MIC with M. tuberculosis H37Rv [1] (setting [7]) and with M. tuberculosis H37Rv [1] (setting [8]) was 9.6 µg/mL (≈ 28.8 µM) each time. Also, in “in vitro”, the CC50 was over 80 µg/mL.

In the case of `COc1ccc(-c2cccc(NC(=O)c3ccc(F)cc3Cl)c2)cc1` [JSF-2907], the MIC in the data set on M. tuberculosis H37Rv [1] (setting [7]) and in the data set with M. tuberculosis H37Rv [1] (setting [8]) was over 77 µg/mL each time. For the same compound, the CC50 in the data set “in vitro” was 50 µg/mL (≈ 141 µM).

Regarding `COc1ccc(-c2cc(NC(=O)c3ccccc3Cl)ccc2OC)cc1` [JSF-2908], the minimal inhibitory concentration (MIC) in the data set on M. tuberculosis H37Rv [1] (setting [7]) and in the data set on M. tuberculosis H37Rv [1] (setting [8]) was 4.8 µg/mL (≈ 13 µM) throughout. The compound also returned a CC50 in “in vitro” of 50 µg/mL (≈ 136 µM).

As to `O=C(Nc1ccc(O)c(-c2ccc(O)cc2)c1)c1ccc(F)cc1Cl` [JSF-2950], the MIC in the data set on M. tuberculosis H37Rv [1] (setting [7]) came out at 39.5 µg/mL (≈ 110 µM); with M. tuberculosis H37Rv [1] (setting [8]) it was 39 µg/mL (≈ 109 µM). In the data set “in vitro”, this compound had a CC50 of 50 µg/mL (≈ 140 µM).

Turning to `CO[C@H]1/C=C/O[C@@]2(C)Oc3c(C)c(O)c4c(O)c(c(/C=N/N5CCN(C)CC5)c(O)c4c3C2=O)NC(=O)/C(C)=C\C=C\[C@H](C)[C@H](O)[C@@H](C)[C@@H](O)[C@@H](C)[C@H](OC(C)=O)[C@@H]1C` [RIF, rifampin], in the data set on M. tuberculosis H37Rv [2], the FIC was 0.25; the MIC was determined as 0.02 µM; the “MIC In combination” value was determined as 0.005 µM; the FIC category result is given as “synergistic (≤0.5, synergistic)”. The “FIC index (∑FIC)” value with M. tuberculosis H37Rv [2] came out at 0.5.

For `NNC(=O)c1ccncc1` [INH, isoniazid], the MK9/DMK9 in [5] is 3.8 and 2.9. The same compound showed an MIC90 against M. bovis BCG of 0.05 µg/mL (≈ 0.365 µM). The MIC90 against M. tuberculosis H37Rv [1] was 0.05 µg/mL (≈ 0.365 µM). In the data set with M. tuberculosis H37Rv [2], the FIC turned out to be 0.2; the minimal inhibitory concentration (MIC) was determined as 0.39 µM; the “MIC In combination” value was 0.09 µM; the FIC category entry is “synergistic (≤0.5, synergistic)”. Further, the “FIC index (∑FIC)” value in the data set on M. tuberculosis H37Rv [2] is reported as 0.4. In [3], the “oxygen consumption (methylene blue decolorization at 665 nm)” value is on record as “clearly decolorized methylene blue”. Moreover, the “day by which cultures were completely sterilized” value in data set [6] was at most 10 days. In addition, in the data set on BCG, the regrowth after stood at 7 days and the “time of treatment … (no CFU detected)” value was found to be 10 days. Also, the “[14C]methyl incorporation into menaquinone” value in [4] is recorded as “no such effect”.

For `COc1ccc(NC(=O)c2ccc(F)cc2Cl)cc1-c1ccccc1` [JSF-2971], the minimal inhibitory concentration (MIC) in the data set with M. tuberculosis H37Rv [1] (setting [7]) and in the data set with M. tuberculosis H37Rv [1] (setting [8]) was 9.6 µg/mL (≈ 27 µM) each time. The compound also showed a CC50 in the data set “in vitro” of over 50 µg/mL.

For `O=[N+]([O-])c1cn2c(n1)OC[C@@H](OCc1ccc(OC(F)(F)F)cc1)C2` [PA824], in the data set with M. tuberculosis H37Rv [2], the FIC was 1.0; the MIC amounted to 0.1 µM; the “MIC In combination” value is 0.1 µM; the FIC category entry is “additive (>0.5 to ≤1, additive)”. Also, the “FIC index (∑FIC)” value in the data set with M. tuberculosis H37Rv [2] amounted to 1.0. In the data set with BCG, the regrowth after is on record as 10 days and the “time of treatment … (no CFU detected)” value is given as 10 days.

As for `CC[C@@H](CO)NCCN[C@@H](CC)CO` [EMB, ethambutol], in the data set with M. tuberculosis H37Rv [2], the FIC was 0.5; the MIC stood at 6.25 µM; the “MIC In combination” value turned out to be 3.12 µM; the FIC category result is “additive (>0.5 to ≤1, additive)”. For the same compound, in the data set with M. tuberculosis H37Rv [2], the “FIC index (∑FIC)” value came out at 0.6.

Consider `COc1ccc(NC(=O)c2ccc(F)cc2Cl)cc1` [JSF-2926], for which the minimal inhibitory concentration (MIC) in the data set on M. tuberculosis H37Rv [1] (setting [7]) and in the data set with M. tuberculosis H37Rv [1] (setting [8]) was 9.6 µg/mL (≈ 34.3 µM) each time. Moreover, in “in vitro”, the CC50 is over 70 µg/mL.
